Experimental data reported in patent US9963463B2, “Urea-substituted indanes as P38 map kinase inhibitors” (TORRENT PHARMACEUTICALS LIMITED, priority 2014, dated 2018).

Biological target: T1, purified recombinant human p38 alpha MAPK (Homo sapiens, UniProt Q16539)
T1 construct: purchased Millipore, USA
Test: Inhibition of p38 alpha MAPK activity, TR-FRET kinase assay
Type: biochemical
Conditions: read-out: P38α Inhibition; for inhibition at 1 µM: Concentration 1 μM; for inhibition at 0.1 µM: Concentration 100 nM
Procedure: Inhibition of p38 Alpha MAPK Activity: Time-Resolved Fluorescence Resonance Energy Transfer Kinase Standard Assay (TR-FRET Assay)
Compounds of present invention at various concentrations were premixed with DMSO. The experiment was initiated by mixing 0.5%-1.0% DMSO as vehicle/compounds with purified recombinant human p38 alpha MAPK (Millipore, USA) in the wells and 15 min incubation at room temperature. Thereafter, 30 nM of Biotinylated GST-ATF2 (Activation transcription Factor2) and 100 μM of ATP were added in to the wells containing reaction mixture, followed by reincubation for 60 minutes at RT. Reaction was terminated by addition of 10 mM of EDTA and detection reagent containing anti-phosphotheronine ATF2 antibody (PerkinElmer®, USA) labeled with europium chelate and APC (Allophycocyanin) labeled streptavidin, into the reaction mixture which was further incubated for 60 minutes at room temperature. The degree of phosphorylation of the substrate (GST-ATF2) was measured using Envision multimode reader (PerkinElmer®). Percentage inhibition of p38 kinase activity was calculated by determining ratio of specific europium 665 nm energy transfer signal to reference 615 nm signal.

T1 sequence (Q16539 whole entry): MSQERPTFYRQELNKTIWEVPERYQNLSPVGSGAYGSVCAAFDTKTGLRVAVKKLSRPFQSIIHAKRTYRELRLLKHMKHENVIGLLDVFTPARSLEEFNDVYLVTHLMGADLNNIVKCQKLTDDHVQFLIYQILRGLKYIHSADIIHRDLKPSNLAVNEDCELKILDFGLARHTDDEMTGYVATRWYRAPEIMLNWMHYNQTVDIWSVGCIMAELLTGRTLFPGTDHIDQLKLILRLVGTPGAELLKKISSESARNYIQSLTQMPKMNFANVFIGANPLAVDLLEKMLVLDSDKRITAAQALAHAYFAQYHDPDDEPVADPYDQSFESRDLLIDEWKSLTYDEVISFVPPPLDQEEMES

Structure (SMILES) | inhibition at 1 µM | inhibition at 0.1 µM
Cc1ccc(-n2nc(C(C)(C)C)cc2NC(=O)Nc2ccc(OCCN3CCN(CC4CCCC4)C(=O)C3)c3c2CCC3)cc1 [Compound 21, 1-[3-tert-butyl-1-(4-methylphenyl)-1H-pyrazol-5-yl]-3-(7-{2-[4-(cyclopentylmethyl)-3-oxopiperazin-1-yl]ethoxy}-2,3-dihydro-1H-inden-4-yl)urea] | 80 to 100% | –
CC(C)(C)c1cc(NC(=O)Nc2ccc(OCCN3CCn4c(nnc4-c4ccc(O)cc4O)C3)c3c2CCC3)n(-c2ccc(O)c(Cl)c2)n1 [Compound 63, 1-[3-tert-butyl-1-(3-chloro-4-hydroxyphenyl)-1H-pyrazol-5-yl]-3-(7-{2-[3-(2,4-dihydroxyphenyl)-5,6-dihydro[1,2,4]triazolo[4,3-a]pyrazin-7(8H)-yl]ethoxy}-2,3-dihydro-1H-inden-4-yl)urea] | – | 60 to 80%
Cc1ccc(-n2nc(C(C)(C)C)cc2NC(=O)Nc2ccc(OCCN3CCn4c(nnc4-c4ccc(O)c(Cl)c4)C3)c3c2CCC3)cc1 [Compound 31, 1-[3-tert-butyl-1-(4-methylphenyl)-1H-pyrazol-5-yl]-3-(7-{2-[3-(3-chloro-4-hydroxyphenyl)-5,6-dihydro[1,2,4]triazolo[4,3-a]pyrazin-7(8H)-yl]ethoxy}-2,3-dihydro-1H-inden-4-yl)urea] | 80 to 100% | –
COc1ccc(-n2nc(C(C)(C)C)cc2NC(=O)Nc2ccc(OCC(=O)N3CCn4c(nnc4C(F)(F)F)C3)c3c2CCC3)cc1Cl [Compound 53, 1-[3-tert-butyl-1-(3-chloro-4-methoxyphenyl)-1H-pyrazol-5-yl]-3-(7-{2-oxo-2-[3-(trifluoromethyl)-5,6-dihydro[1,2,4]triazolo[4,3-a]pyrazin-7(8H)-yl]ethoxy}-2,3-dihydro-1H-inden-4-yl)urea] | 40 to 60% | –
CSc1ccccc1-c1nnc2n1CCN(C(=O)COc1ccc(NC(=O)Nc3cc(C(C)(C)C)nn3-c3ccccc3)c3c1CCC3)C2 [Compound 7, 1-(3-tert-butyl-1-phenyl-1H-pyrazol-5-yl)-3-[7-(2-{3-[2-(methylsulfanyl)phenyl]-5,6-dihydro[1,2,4]triazolo[4,3-a]pyrazin-7(8H)-yl}-2-oxoethoxy)-2,3-dihydro-1H-inden-4-yl]urea] | 80 to 100% | –
Cc1ccc(-n2nc(C(C)(C)C)cc2NC(=O)Nc2ccc(OCCN3CCn4c(nnc4-c4ccccc4O)C3)c3c2CCC3)cc1 [Compound 15, 1-[3-tert-butyl-1-(4-methylphenyl)-1H-pyrazol-5-yl]-3-(7-{2-[3-(2-hydroxyphenyl)-5,6-dihydro[1,2,4]triazolo[4,3-a]pyrazin-7(8H)-yl]ethoxy}-2,3-dihydro-1H-inden-4-yl)urea] | 80 to 100% | –
Cc1ccc(-n2nc(C(C)(C)C)cc2NC(=O)Nc2ccc(OCC(=O)N3CCn4c(nnc4-c4ccccc4)C3)c3c2CCC3)cc1 [Compound 57, 1-[3-tert-butyl-1-(4-methylphenyl)-1H-pyrazol-5-yl]-3-{7-[2-oxo-2-(3-phenyl-5,6-dihydro[1,2,4]triazolo[4,3-a]pyrazin-7(8H)-yl)ethoxy]-2,3-dihydro-1H-inden-4-yl}urea] | 60 to 80% | –
Cc1ccc(-n2nc(C(C)(C)C)cc2NC(=O)Nc2ccc(OCCN3CCn4c(nnc4-c4ccccc4OCCO)C3)c3c2CCC3)cc1 [Compound 30, 1-[3-tert-butyl-1-(4-methylphenyl)-1H-pyrazol-5-yl]-3-[7-(2-{3-[2-(2-hydroxyethoxy)phenyl]-5,6-dihydro[1,2,4]triazolo[4,3-a]pyrazin-7(8H)-yl}ethoxy)-2,3-dihydro-1H-inden-4-yl]urea] | 80 to 100% | –
COc1c(NC(=O)Nc2ccc(OCCN3CCn4c(nnc4-c4cc(Cl)ccc4O)C3)c3c2CCC3)cc(C(C)(C)C)cc1NS(C)(=O)=O [Compound 48, N-(5-tert-butyl-3-{[(7-{2-[3-(5-chloro-2-hydroxyphenyl)-5,6-dihydro[1,2,4]triazolo[4,3-a]pyrazin-7(8H)-yl]ethoxy}-2,3-dihydro-1H-inden-4-yl)carbamoyl]amino}-2-methoxyphenyl)methanesulfonamide] | 80 to 100% | –
Cc1ccc(-n2nc(C(C)(C)C)cc2NC(=O)Nc2ccc(OCCN3CCn4c(nnc4-c4ccc(O)cc4)C3)c3c2CCC3)cc1 [Compound 34, 1-[3-tert-butyl-1-(4-methylphenyl)-1H-pyrazol-5-yl]-3-(7-{2-[3-(4-hydroxyphenyl)-5,6-dihydro[1,2,4]triazolo[4,3-a]pyrazin-7(8H)-yl]ethoxy}-2,3-dihydro-1H-inden-4-yl)urea] | 80 to 100% | –
CC(=O)Nc1cc2c(s1)CCN(C(=O)COc1ccc(NC(=O)Nc3cc(C(C)(C)C)nn3-c3ccc(C)cc3)c3c1CCC3)C2 [Compound 52, N-[5-({[7-({[3-tert-butyl-1-(4-methylphenyl)-1H-pyrazol-5-yl]carbamoyl}amino)-2,3-dihydro-1H-inden-4-yl]oxy}acetyl)-4,5,6,7-tetrahydrothieno[3,2-c]pyridin-2-yl] acetamide] | 60 to 80% | –
CCCSc1ccccc1-c1nnc2n1CCN(CCOc1ccc(NC(=O)Nc3cc(C(C)(C)C)nn3-c3ccc(C)cc3)c3c1CCC3)C2 [Compound 33, 1-[3-tert-butyl-1-(4-methylphenyl)-1H-pyrazol-5-yl]-3-[7-(2-{3-[2-(propylsulfanyl)phenyl]-5,6-dihydro[1,2,4]triazolo[4,3-a]pyrazin-7(8H)-yl}ethoxy)-2,3-dihydro-1H-inden-4-yl]urea] | 80 to 100% | –
CCCOc1ccccc1-c1nnc2n1CCN(CCOc1ccc(NC(=O)Nc3cc(C(C)(C)C)nn3-c3ccc(O)c(Cl)c3)c3c1CCC3)C2 [Compound 27, 1-[3-tert-butyl-1-(3-chloro-4-hydroxyphenyl)-1H-pyrazol-5-yl]-3-(7-{2-[3-(2-propoxyphenyl)-5,6-dihydro[1,2,4]triazolo[4,3-a]pyrazin-7(8H)-yl]ethoxy}-2,3-dihydro-1H-inden-4-yl)urea] | 80 to 100% | –
Cc1ccc(-n2nc(C(C)(C)C)cc2NC(=O)Nc2ccc(OCCN3CCN(c4ccccc4)C(=O)C3)c3c2CCC3)cc1 [Compound 19, 1-[3-tert-butyl-1-(4-methylphenyl)-1H-pyrazol-5-yl]-3-{7-[2-(3-oxo-4-phenylpiperazin-1-yl)ethoxy]-2,3-dihydro-1H-inden-4-yl}urea] | 80 to 100% | –
CSc1ccccc1-c1nnc2n1CCN(CCOc1ccc(NC(=O)Nc3cc(C(C)(C)C)nn3-c3ccc(C)cc3)c3c1CCC3)C2 [Compound 13, 1-[3-tert-butyl-1-(4-methylphenyl)-1H-pyrazol-5-yl]-3-[7-(2-{3-[2-(methylsulfanyl)phenyl]-5,6-dihydro[1,2,4]triazolo[4,3-a]pyrazin-7(8H)-yl}ethoxy)-2,3-dihydro-1H-inden-4-yl]urea] | 80 to 100% | –
COc1c(NC(=O)Nc2ccc(OCCN3CCn4c(nnc4-c4ccc(SCCO)cc4)C3)c3c2CCC3)cc(C(C)(C)C)cc1NS(C)(=O)=O [Compound 47, N-(5-tert-butyl-3-{[(7-{2-[3-{4-[(2-hydroxyethyl)sulfanyl]phenyl}-5,6-dihydro[1,2,4]triazolo[4,3-a]pyrazin-7(8H)-yl]ethoxy}-2,3-dihydro-1H-inden-4-yl)carbamoyl]amino}-2-methoxyphenyl)methanesulfonamide] | – | 60 to 80%
Cc1ccc(-n2nc(C(C)(C)C)cc2NC(=O)Nc2cc(C)c(OCCN3CCn4c(nnc4-c4cc(Cl)ccc4O)C3)c3c2CCC3)cc1 [Compound 66, 1-[3-tert-butyl-1-(4-methylphenyl)-1H-pyrazol-5-yl]-3-(7-{2-[3-(5-chloro-2-hydroxyphenyl)-5,6-dihydro[1,2,4]triazolo[4,3-a]pyrazin-7(8H)-yl]ethoxy}-6-methyl-2,3-dihydro-1H-inden-4-yl)urea] | < 20% | –
COc1c(NC(=O)Nc2ccc(OCCN3CCn4c(nnc4C4CCCCC4)C3)c3c2CCC3)cc(C(C)(C)C)cc1NS(C)(=O)=O [Compound 72, N-{5-tert-butyl-3-[({7-[2-(3-cyclohexyl-5,6-dihydro[1,2,4]triazolo[4,3-a]pyrazin-7(8H)-yl)ethoxy]-2,3-dihydro-1H-inden-4-yl}carbamoyl)amino]-2-methoxyphenyl}methanesulfonamide] | 40 to 60% | –
Cc1ccc(-n2nc(C(C)(C)C)cc2NC(=O)Nc2ccc(OCCN3CCn4c(nnc4-c4cc(Cl)ccc4O)C3)c3c2CCC3)cc1 [Compound 38] | 80 to 100% | –
COc1c(NC(=O)Nc2ccc(OCCN3CCN(CC4CC4)C(=O)C3)c3c2CCC3)cc(C(C)(C)C)cc1NS(C)(=O)=O [Compound 39, N-(5-tert-butyl-3-{[(7-{2-[4-(cyclopropylmethyl)-3-oxopiperazin-1-yl]ethoxy}-2,3-dihydro-1H-inden-4-yl)carbamoyl]amino}-2-methoxyphenyl)methanesulfonamide] | 80 to 100% | –
Cc1ccc(-n2nc(C(C)(C)C)cc2NC(=O)Nc2ccc(OCCN3CCn4c(nnc4-c4oc5ccccc5c4C)C3)c3c2CCC3)cc1 [Compound 69, 1-[3-tert-butyl-1-(4-methylphenyl)-1H-pyrazol-5-yl]-3-(7-{2-[3-(3-methyl-1-benzofuran-2-yl)-5,6-dihydro[1,2,4]triazolo[4,3-a]pyrazin-7(8H)-yl]ethoxy}-2,3-dihydro-1H-inden-4-yl)urea] | 40 to 60% | –
Cc1ccc(-n2nc(C(C)(C)C)cc2NC(=O)Nc2ccc(OCCN3CCn4c(nnc4-c4ccc(O)cc4O)C3)c3c2CCC3)cc1 [Compound 37, 1-[3-tert-butyl-1-(4-methylphenyl)-1H-pyrazol-5-yl]-3-(7-{2-[3-(2,4-dihydroxyphenyl)-5,6-dihydro[1,2,4]triazolo[4,3-a]pyrazin-7(8H)-yl]ethoxy}-2,3-dihydro-1H-inden-4-yl)urea] | 80 to 100% | –
